{
  "source": "paper PMC6893741",
  "about": "“Docosahexaenoic Acid Inhibits PTP1B Phosphatase and the Viability of MCF-7 Breast Cancer Cells” (Nutrients, 2019)",
  "target": "T1, Protein tyrosine phosphatase 1B (PTP1B) (Homo sapiens, UniProt P18031)",
  "T1 construct": "gene PTPN1; recombinant PTP1B",
  "T1 sequence (P18031 1-435)": "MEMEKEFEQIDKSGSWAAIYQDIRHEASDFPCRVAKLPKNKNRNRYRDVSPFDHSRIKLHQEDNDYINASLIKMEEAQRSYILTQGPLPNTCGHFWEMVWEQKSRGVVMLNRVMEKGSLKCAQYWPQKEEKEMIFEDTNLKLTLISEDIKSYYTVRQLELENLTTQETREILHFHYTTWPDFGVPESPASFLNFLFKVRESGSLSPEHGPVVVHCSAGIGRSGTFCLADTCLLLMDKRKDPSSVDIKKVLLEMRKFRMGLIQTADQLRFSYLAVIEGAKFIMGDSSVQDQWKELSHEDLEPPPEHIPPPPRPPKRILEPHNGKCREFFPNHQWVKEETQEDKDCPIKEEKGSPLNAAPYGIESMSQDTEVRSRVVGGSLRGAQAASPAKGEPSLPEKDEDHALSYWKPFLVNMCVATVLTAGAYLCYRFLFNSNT",
  "assay": "recombinant PTP1B activity assay with pNPP, absorbance at […] nm, […] min incubation",
  "assay_type": "biochemical",
  "data": [
    {"compound": "CC/C=C\\C/C=C\\C/C=C\\C/C=C\\C/C=C\\C/C=C\\CCC(=O)O", "note": "[DHA, docosahexaenoic acid]", "values": [
      {"measurement": "IC50", "result": "174 ± 25.5", "unit": "µM"}
    ]}
  ]
}
